pIC50: −log10 of the molar value.
Key:
[1] = molecular target: T1, EP4 (Homo sapiens, UniProt P35408); experiment: Functional calcium flux assay, EP4; format: cell-based; details: stably transfected HEK293 cells; PGE2 10 nM; read-out: EP4 Ca2+-flux assay IC50
T1 construct: host or cells: stably transfected HEK293 cells co-expressing a promiscuous G protein and a clytin variant

[2] = molecular target: EP2 (Homo sapiens, UniProt P43116);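 note: functional calcium flux assay in stably transfected HEK293 cells expressing EP2 coupled via a promiscuous G protein, clytin luminescence read as area under the curve, 30 min compound preincubation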
Chain of EP2 (P43116 whole entry): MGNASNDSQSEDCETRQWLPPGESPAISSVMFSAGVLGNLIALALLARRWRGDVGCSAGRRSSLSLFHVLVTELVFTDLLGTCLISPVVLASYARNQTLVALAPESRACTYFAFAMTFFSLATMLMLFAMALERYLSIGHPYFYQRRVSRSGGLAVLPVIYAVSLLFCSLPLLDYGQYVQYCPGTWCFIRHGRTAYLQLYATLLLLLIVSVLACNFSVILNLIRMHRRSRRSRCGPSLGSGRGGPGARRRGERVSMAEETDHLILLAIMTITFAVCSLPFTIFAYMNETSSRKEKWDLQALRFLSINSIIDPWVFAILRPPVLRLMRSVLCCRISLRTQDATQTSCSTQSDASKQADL
Description: Each receptor subtype has an additional promiscuous G protein added in order to couple the aforementioned receptor to the calcium signaling pathway. The parental cell line used also expresses a novel variant of clytin, a calcium-activated photo-protein, to enable sensitive luminescent detection. Briefly, cells were plated at 50,000 cells-per-well in black, clear bottom 96-well plates. The plated cells were allowed to sit at room temperature for 30 min prior to transferring to a humidified, 37° C., 5% CO2 incubator for 18 to 24 h. Assay buffer (HBSS with 20 mM HEPES) and loading buffer (assay buffer plus 10 μM coelenterazine) were prepared on the day of the assay. Assays were performed by aspirating media from the assay plate and washing once with assay buffer, then replacing with loading buffer and allowing the cells to incubate for 1.5 h at room temperature. Compounds were prepared in assay buffer at a 3× final concentration in non-binding plates. Compounds were added to the cell plates and incubated for 30 min at room temperature. The prostanoid receptor ligand PGE2 was prepared at a 4× dilution ratio for a final concentration of 10 nM. Plates were run on a Flexstation™ using a 100 ms integration luminescence protocol for a total of 60 sec with ligand addition at 15 sec. Data were obtained from relative light units as measured by area under the curve.

T1 sequence (P35408 whole entry): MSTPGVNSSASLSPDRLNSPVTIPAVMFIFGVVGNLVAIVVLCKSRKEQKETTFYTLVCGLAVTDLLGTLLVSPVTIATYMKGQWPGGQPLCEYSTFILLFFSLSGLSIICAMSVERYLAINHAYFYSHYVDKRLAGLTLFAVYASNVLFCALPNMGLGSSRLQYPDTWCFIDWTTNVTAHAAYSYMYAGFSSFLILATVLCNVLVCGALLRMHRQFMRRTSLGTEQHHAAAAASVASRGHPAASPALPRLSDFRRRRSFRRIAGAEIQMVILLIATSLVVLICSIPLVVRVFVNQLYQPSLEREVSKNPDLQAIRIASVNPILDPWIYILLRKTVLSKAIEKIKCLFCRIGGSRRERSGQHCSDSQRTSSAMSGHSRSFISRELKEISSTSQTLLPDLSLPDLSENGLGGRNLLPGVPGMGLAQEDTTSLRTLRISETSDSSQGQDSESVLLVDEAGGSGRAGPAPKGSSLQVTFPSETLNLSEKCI

pIC50 [1]	pIC50 [2]	Structure (SMILES)
> 9.00	> 7.60	N#Cc1cccc(-c2ccc(Cn3ncc4c(Cl)ccc(C(=O)NC5CC6(CC(CC(=O)O)C6)C5)c43)cc2)c1 (stereo not shown) [Example 144, (Ra)-2-(6-(4-Chloro-1-((3′-cyano-[1,1-biphenyl]-4-yl)methyl)-1H-indazole-7-carboxamido)spiro[3.3]heptan-2-yl)acetic acid]
8.54	7.16	CCOc1cc(-c2ccc(C(C)n3ncc4cccc(C(=O)NC5CC6(C5)CC(C(=O)O)C6)c43)cc2)ccn1 (racemic) [Example 115, (Sa)-6-(1-((racemic)-1-(4-(2-ethoxypyridin-4-yl)phenyl)-ethyl)-1H-indazole-7-carboxamido)spiro[3.3]heptane-2-carboxylic acid]
> 9.00	> 7.60	COc1ccc(-c2ccc(Cn3ccc4c(F)ccc(C(=O)NC5CC6(C5)CC(C(=O)O)C6)c43)cc2)cc1 (stereo not shown) [Example 51, (Sa)-6-(4-fluoro-1-((4’-methoxy-[1,1′-biphenyl]-4-yl)methyl)-1H-indole-7-carboxamido)spiro[3.3]heptane-2-carboxylic acid]
> 9.00	> 7.60	COc1ccc2ccc(Cn3ccc4c(F)ccc(C(=O)NC5CC6(C5)CC(C(=O)O)C6)c43)cc2c1 (stereo not shown) [Example 40, (Sa)-6-(4-fluoro-1-((7-methoxynaphthalen-2-yl)methyl)-1H-indole-7-carboxamido)spiro[3.3]heptane-2-carboxylic acid]
> 9.00	> 7.60	COc1cc(C#N)cc(-c2ccc(C(C)n3ncc4cccc(C(=O)NC5CC6(C5)CC(C(=O)O)C6)c43)cc2)c1 (single isomer, unassigned) [Example 126, (Sa)-6-(1-((R) or (S)-1-(3′-cyano-5′-methoxy-[1,1′-biphenyl]-4-yl)-ethyl)-1H-indazole-7-carboxamido)spiro[3.3]heptane-2-carboxylic acid]
7.96	> 7.60	COc1ncc(-c2ccc(C(C)n3ccc4c(F)ccc(C(=O)NC5CC6(C5)CC(C(=O)O)C6)c43)cc2)cc1Cl (racemic) [Example 120, (Sa)-6-(1-((racemic)-1-(4-(5-chloro-6-methoxypyridin-3-yl)phenyl)-ethyl)-4-fluoro-1H-indole-7-carboxamido)spiro[3.3]heptane-2-carboxylic acid]
> 9.00	> 7.60	COc1ccc2cc(Cn3ccc4c(F)ccc(C(=O)NC5CC6(C5)CC(C(=O)O)C6)c43)ccc2c1 (stereo not shown) [Example 38, (Sa)-6-(4-fluoro-1-((6-methoxynaphthalen-2-yl)methyl)-1H-indole-7-carboxamido)spiro[3.3]heptane-2-carboxylic acid]
> 9.00	7.06	COc1cc(-c2ccc(Cn3ccc4c(F)ccc(C(=O)NC5CC6(C5)CC(C(=O)O)C6)c43)cc2)ccc1F (stereo not shown) [Example 46, (Sa)-6-(4-fluoro-1-((4’-fluoro-3’-methoxy-[1,1′-biphenyl]-4-yl)methyl)-1H-indole-7-carboxamido)spiro[3.3]heptane-2-carboxylic acid]
7.92	7.22	COc1cc(C#N)cc(-c2ccc(C(C)n3ncc4c(Cl)ccc(C(=O)NC5CC6(C5)CC(C(=O)O)C6)c43)cc2)c1 (racemic) [Example 123, (Sa)-6-(4-chloro-1-((racemic)-1-(3′-cyano-5′-methoxy-[1,1′-biphenyl]-4-yl)-ethyl)-1H-indazole-7-carboxamido)spiro[3.3]heptane-2-carboxylic acid]
> 9.00	> 7.60	CCOc1cc(-c2ccc(Cn3ccc4c(Cl)ccc(C(=O)NC5CC6(C5)CC(C(=O)O)C6)c43)cc2)ccn1 (stereo not shown) [Example 70, (Sa)-6-(4-chloro-1-(4-(2-ethoxypyridin-4-yl)benzyl)-1H-indole-7-carboxamido)spiro[3.3]heptane-2-carboxylic acid]
> 9.00	7.42	COc1cccc(-c2ccc(Cn3ncc4c(Cl)ccc(C(=O)NC5CC6(CC(CC(=O)O)C6)C5)c43)cc2)n1 [Example 149, (R)-2-(6-(4-Chloro-1-(4-(6-methoxypyridin-2-yl)benzyl)-1H-indazole-7-carboxamido)spiro[3.3]heptan-2-yl)acetic acid]
> 9.00	7.34	N#Cc1cccc(-c2ccc(Cn3ccc4c(F)ccc(C(=O)NC5CC6(C5)CC(C(=O)O)C6)c43)cc2)c1 (stereo not shown) [Example 55, (Sa)-6-(1-((3’-cyano-[1,1′-biphenyl]-4-yl)methyl)-4-fluoro-1H-indole-7-carboxamido)spiro[3.3]heptane-2-carboxylic acid]

The remaining lines, values behind:

Structure (SMILES)	pIC50 [1]	pIC50 [2]
O=C(NC1CC2(C1)CC(C(=O)O)C2)c1ccc(F)c2ccn(Cc3ccc(-c4cccc(OC5COC5)c4)cc3)c12 (stereo not shown) [Example 57, (Sa)-6-(4-fluoro-1-((3′-(oxetane-3-yloxy)-[1,1′-biphenyl]-4-yl)methyl)-1H-indole-7-carboxamido)spiro[3.3]heptane-2-carboxylic acid]	> 9.00	7.00
O=C(O)CC1CC2(C1)CC(NC(=O)c1ccc(OC(F)F)c3cnn(Cc4ccc(-c5ccccc5)cc4)c13)C2 (stereo not shown) [Example 162, (Ra)-2-(6-(1-([1,1′-Biphenyl]-4-ylmethyl)-4-(difluoromethoxy)-1H-indazole-7-carboxamido)spiro[3.3]heptan-2-yl)acetic acid]	8.92	7.28
O=C(NC1CC2(C1)CC(C(=O)O)C2)c1cc(Cl)cc2cnn(Cc3ccc(-c4ccccc4)c(F)c3)c12 (stereo not shown) [Example 153, (Sa)-6-(5-Chloro-1-((2fluoro-[1,1′-biphenyl]-4-yl)methyl)-1H-indazole-7-carboxamido)spiro[3.3]heptane-2-carboxylic acid]	> 9.00	7.02
O=C(O)CC1CC2(C1)CC(NC(=O)c1cc(Cl)cc3cnn(Cc4ccc(-c5ccccc5)c(F)c4)c13)C2 (stereo not shown) [Example 152, (Sa)-2-(6-(5-Chloro-1-((2-fluoro-[1,1′-biphenyl]-4-yl)methyl)-1H-indazole-7-carboxamido)spiro[3.3]heptan-2-yl)acetic acid]	> 9.00	7.31
O=C(O)CC1CC2(C1)CC(NC(=O)c1cc(Cl)c(F)c3cnn(Cc4ccc(-c5ccccc5)cc4)c13)C2 (stereo not shown) [Example 170, (Ra)-2-(6-(1-([1,1′-Biphenyl]-4-ylmethyl)-5-chloro-4-fluoro-1H-indazole-7-carboxamido)spiro[3.3]heptan-2-yl)acetic acid]	8.29	> 7.60
O=C(NC1CC2(C1)CC(C(=O)O)C2)c1ccc(F)c2ccn(Cc3ccc4ccc(Br)cc4c3)c12 (stereo not shown) [Example 44, (Sa)-6-(1-((7-bromonaphthalen-2-yl)methyl)-4-fluoro-1H-indole-7-carboxamido)spiro[3.3]heptane-2-carboxylic acid]	> 9.00	7.52
CNC(=O)c1cc(-c2ccc(Cn3ccc4c(F)ccc(C(=O)NC5CC6(C5)CC(C(=O)O)C6)c43)cc2)ccn1 (stereo not shown) [Example 60, (Sa)-6-(4-fluoro-1-(4-(2-(methylcarbamoyl)pyridin-4-yl)benzyl)-1H-indole-7-carboxamido)spiro[3.3]heptane-2-carboxylic acid]	> 9.00	7.40
COc1cc(-c2ccc(Cn3ncc4cc(Cl)cc(C(=O)NC5CC6(C5)CC(C(=O)O)C6)c43)cc2F)ccn1 (stereo not shown) [Example 154, (Sa)-6-(5-Chloro-1-(3-fluoro-4-(2-methoxypyridin-4-yl)benzyl)-1H-indazole-7-carboxamido)spiro[3.3]heptane-2-carboxylic acid]	8.55	> 7.60
